Columns and labels:
Conditions in all cases: FGFR binding data
FGFR2 = target: T1, FGFR2 (Homo sapiens, UniProt P21802); test: Kinase binding assay (kinase-tagged T7 phage, affinity beads, qPCR readout), FGFR2
T1 construct: made in house; host or cells: E. coli derived from BL21, infected with T7 phage
Method in brief: (§1)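 Dissociation constants were measured by bead-capture competition at 0.9% DMSO, room temperature, 1 hour. qPCR of eluted kinase supplied the signal.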

FGFR3 = target: T2, FGFR3 (Homo sapiens, UniProt P22607); test: Kinase binding assay (kinase-tagged T7 phage, affinity beads, qPCR readout), FGFR3
T2 construct: made in house; host or cells: E. coli derived from BL21, infected with T7 phage
T2 sequence (P22607 23-806): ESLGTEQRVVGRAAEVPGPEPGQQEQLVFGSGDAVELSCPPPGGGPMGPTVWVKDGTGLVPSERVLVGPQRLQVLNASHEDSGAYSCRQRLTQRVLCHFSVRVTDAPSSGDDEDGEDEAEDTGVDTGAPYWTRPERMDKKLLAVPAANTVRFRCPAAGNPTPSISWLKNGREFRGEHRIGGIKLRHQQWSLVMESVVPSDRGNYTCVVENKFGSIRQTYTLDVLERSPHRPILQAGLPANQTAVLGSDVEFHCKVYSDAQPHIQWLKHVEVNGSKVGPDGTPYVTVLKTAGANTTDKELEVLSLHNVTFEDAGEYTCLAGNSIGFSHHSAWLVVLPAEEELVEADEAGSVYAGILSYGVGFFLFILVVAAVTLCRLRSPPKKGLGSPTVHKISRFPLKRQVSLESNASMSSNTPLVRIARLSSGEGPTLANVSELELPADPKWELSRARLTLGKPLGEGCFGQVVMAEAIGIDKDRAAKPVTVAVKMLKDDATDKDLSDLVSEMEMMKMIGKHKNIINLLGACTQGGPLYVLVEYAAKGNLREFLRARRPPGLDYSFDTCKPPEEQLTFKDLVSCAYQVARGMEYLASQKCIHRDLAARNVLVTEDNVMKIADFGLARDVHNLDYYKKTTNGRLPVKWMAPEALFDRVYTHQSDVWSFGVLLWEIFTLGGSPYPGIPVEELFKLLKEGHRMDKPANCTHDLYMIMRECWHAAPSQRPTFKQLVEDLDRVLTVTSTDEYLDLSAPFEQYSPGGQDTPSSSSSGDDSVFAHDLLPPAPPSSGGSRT
Method in brief: as §1

FGFR3 (V555M) = target: T3, FGFR3 (V555M) (Homo sapiens, UniProt P22607, V555M); test: Kinase binding assay (kinase-tagged T7 phage, affinity beads, qPCR readout), FGFR3 (V555M)
T3 construct: made in house; host or cells: E. coli derived from BL21, infected with T7 phage
T3 sequence (P22607 23-806 V555M): as the sequence (P22607 23-806) above, with V533M counted along it
Method in brief: as §1

FGFR1 = target: T4, FGFR1 (Homo sapiens, UniProt P11362); test: Kinase binding assay (kinase-tagged T7 phage, affinity beads, qPCR readout), FGFR1
T4 construct: made in house; host or cells: E. coli derived from BL21, infected with T7 phage
T4 sequence (P11362 22-822): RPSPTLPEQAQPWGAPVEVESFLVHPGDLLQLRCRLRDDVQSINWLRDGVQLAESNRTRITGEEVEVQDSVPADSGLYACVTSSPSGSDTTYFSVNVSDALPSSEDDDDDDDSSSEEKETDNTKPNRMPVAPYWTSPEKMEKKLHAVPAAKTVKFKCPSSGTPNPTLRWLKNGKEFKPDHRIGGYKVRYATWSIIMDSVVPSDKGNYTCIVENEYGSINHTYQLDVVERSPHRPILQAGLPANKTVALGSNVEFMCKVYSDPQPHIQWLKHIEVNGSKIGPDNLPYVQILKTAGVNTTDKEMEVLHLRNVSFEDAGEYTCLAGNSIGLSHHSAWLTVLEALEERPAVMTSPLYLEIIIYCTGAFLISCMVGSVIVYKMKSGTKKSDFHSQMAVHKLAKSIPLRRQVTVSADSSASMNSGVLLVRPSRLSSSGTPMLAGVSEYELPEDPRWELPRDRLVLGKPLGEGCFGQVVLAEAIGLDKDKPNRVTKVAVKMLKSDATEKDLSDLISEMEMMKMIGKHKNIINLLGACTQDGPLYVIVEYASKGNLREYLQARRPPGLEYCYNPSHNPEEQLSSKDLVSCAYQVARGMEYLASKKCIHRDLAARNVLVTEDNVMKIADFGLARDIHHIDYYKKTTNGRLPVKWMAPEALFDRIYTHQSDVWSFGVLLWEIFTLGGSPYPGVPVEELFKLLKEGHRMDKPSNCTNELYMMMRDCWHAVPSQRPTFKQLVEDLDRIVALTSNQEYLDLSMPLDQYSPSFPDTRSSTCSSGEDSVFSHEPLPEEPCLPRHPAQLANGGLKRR
Method in brief: as §1

T1 sequence (P21802 22-821): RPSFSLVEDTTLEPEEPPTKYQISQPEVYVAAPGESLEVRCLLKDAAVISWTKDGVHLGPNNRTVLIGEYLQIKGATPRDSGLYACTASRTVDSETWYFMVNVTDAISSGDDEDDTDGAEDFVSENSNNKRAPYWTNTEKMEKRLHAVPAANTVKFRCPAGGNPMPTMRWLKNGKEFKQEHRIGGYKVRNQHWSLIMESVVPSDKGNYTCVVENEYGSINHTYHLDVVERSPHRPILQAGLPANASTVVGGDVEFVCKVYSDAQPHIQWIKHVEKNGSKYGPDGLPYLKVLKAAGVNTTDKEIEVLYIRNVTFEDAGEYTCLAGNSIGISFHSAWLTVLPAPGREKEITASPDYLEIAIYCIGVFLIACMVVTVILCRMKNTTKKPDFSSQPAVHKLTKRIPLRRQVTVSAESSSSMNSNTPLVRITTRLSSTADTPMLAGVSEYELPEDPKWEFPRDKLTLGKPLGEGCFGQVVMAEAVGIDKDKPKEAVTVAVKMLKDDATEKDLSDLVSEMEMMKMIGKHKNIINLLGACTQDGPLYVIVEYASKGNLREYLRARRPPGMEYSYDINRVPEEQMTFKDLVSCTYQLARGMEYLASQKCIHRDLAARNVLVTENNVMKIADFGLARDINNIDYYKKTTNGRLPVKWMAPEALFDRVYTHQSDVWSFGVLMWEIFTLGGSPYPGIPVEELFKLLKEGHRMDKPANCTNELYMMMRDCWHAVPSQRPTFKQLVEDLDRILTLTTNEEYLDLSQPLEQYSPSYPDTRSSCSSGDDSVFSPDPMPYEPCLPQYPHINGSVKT

Structure (SMILES)	Kd (FGFR2)	Kd (FGFR3)	Kd (FGFR3 (V555M))	Kd (FGFR1)
C=CC(=O)Nc1ccc2c(-c3nc(Nc4ccc(N5CCOCC5)nc4)ncc3Cl)cn(C)c2c1 [Example 45, N-[3-[5-chloro-2-[(6-morpholino-3-pyridyl)amino]pyrimidin-4-yl]-1-methyl-indol-6-yl]prop-2-enamide]	0.1 to 100 nM	0.1 to 100 nM	0.1 to 100 nM	0.1 to 100 nM
C=CC(=O)Nc1ccc2c(-c3nc(Nc4ccc(N5CCOCC5)c(OC)c4)ncc3Cl)cn(C)c2c1 [Example 51, N-[3-[5-chloro-2-(3-methoxy-4-morpholino-anilino)pyrimidin-4-yl]-1-methyl-indol-6-yl]prop-2-enamide]	0.1 to 100 nM	0.1 to 100 nM	0.1 to 100 nM	0.1 to 100 nM
C=CC(=O)N(C)c1ccc2c(c1)c(C)cn2-c1nc(Nc2ccnn2C)ncc1C [Example 151, N-methyl-N-[3-methyl-1-[5-methyl-2-[(2-methylpyrazol-3-yl)amino]pyrimidin-4-yl]indol-5-yl]prop-2-enamide]	> 1000 nM	> 1000 nM	> 1000 nM	> 1000 nM
CC#CC(=O)Nc1ccc2c(c1)c(C)cn2-c1nc(Nc2ccnn2C)ncc1C [Example 130, N-[3-methyl-1-[5-methyl-2-[(2-methylpyrazol-3-yl)amino]pyrimidin-4-yl]indol-5-yl]but-2-ynamide]	250 to 1000 nM	> 1000 nM	250 to 1000 nM	> 1000 nM
C=CC(=O)Nc1ccc2c(-c3ccnc(Nc4cn(CC)nc4C)n3)cn(C)c2c1 [Example 173, N-[3-[2-[(1-ethyl-3-methyl-pyrazol-4-yl)amino]pyrimidin-4-yl]-1-methyl-indol-6-yl]prop-2-enamide]	100 to 250 nM	0.1 to 100 nM	0.1 to 100 nM	250 to 1000 nM
C=CC(=O)Nc1ccc2c(c1)c(C)cn2-c1nc(Nc2ccc(CN3CCOCC3)cc2)ncc1Cl [Example 75, N-[1-[5-chloro-2-[4-(morpholinomethyl)anilino]pyrimidin-4-yl]-3-methyl-indol-5-yl]prop-2-enamide]	0.1 to 100 nM	0.1 to 100 nM	0.1 to 100 nM	0.1 to 100 nM
C#CC(=O)Nc1cnc2c(c1)c(C)cn2-c1nc(Nc2cnn(CCO)c2)ncc1C [Example 141, N-[1-[2-[[1-(2-hydroxyethyl)pyrazol-4-yl]amino]-5-methyl-pyrimidin-4-yl]-3-methyl-pyrrolo[2,3-b]pyridin-5-yl]prop-2-ynamide]	0.1 to 100 nM	0.1 to 100 nM	0.1 to 100 nM	0.1 to 100 nM
C=CC(=O)Nc1ccc2c(-c3ccnc(Nc4ccn(CCO)n4)n3)cn(C)c2c1 [Example 101, N-[3-[2-[[1-(2-hydroxyethyl)pyrazol-3-yl]amino]pyrimidin-4-yl]-1-methyl-indol-6-yl]prop-2-enamide]	250 to 1000 nM	0.1 to 100 nM	100 to 250 nM	100 to 250 nM
C=CC(=O)Nc1ccc2c(ccn2-c2nc(Nc3ccc(N4CCOCC4)c(F)c3)ncc2Cl)c1 [Example 16, N-[1-[5-chloro-2-(3-fluoro-4-morpholino-anilino)pyrimidin-4-yl]indol-5-yl]prop-2-enamide]	250 to 1000 nM	0.1 to 100 nM	0.1 to 100 nM	250 to 1000 nM
C#CC(=O)Nc1ccc2c(-c3nc(Nc4cnn(CCO)c4)ncc3F)cn(C)c2c1 [Example 142, N-[3-[5-fluoro-2-[[1-(2-hydroxyethyl)pyrazol-4-yl]amino]pyrimidin-4-yl]-1-methyl-indol-6-yl]prop-2-ynamide]	0.1 to 100 nM	0.1 to 100 nM	0.1 to 100 nM	0.1 to 100 nM
C=C(Cl)C(=O)Nc1cnc2c(c1)c(C)cn2-c1nc(Nc2ccn(C)n2)ncc1C [Example 116, 2-chloro-N-[3-methyl-1-[5-methyl-2-[(1-methylpyrazol-3-yl)amino]pyrimidin-4-yl]pyrrolo[2,3-b]pyridin-5-yl]prop-2-enamide]	0.1 to 100 nM	0.1 to 100 nM	0.1 to 100 nM	100 to 250 nM
C=CC(=O)Nc1ccc2c(-c3ccnc(Nc4ccn(C)n4)n3)cn(C)c2c1 [Example 92, N-[1-methyl-3-[2-[(1-methylpyrazol-3-yl)amino]pyrimidin-4-yl]indol-6-yl]prop-2-enamide]	100 to 250 nM	0.1 to 100 nM	100 to 250 nM	100 to 250 nM
C=CC(=O)Nc1cnc2c(c1)c(C)cn2-c1ccnc(Nc2ccnn2C)n1 [Example 83, N-[3-methyl-1-[2-[(2-methylpyrazol-3-yl)amino]pyrimidin-4-yl]pyrrolo[2,3-b]pyridin-5-yl]prop-2-enamide]	0.1 to 100 nM	0.1 to 100 nM	0.1 to 100 nM	0.1 to 100 nM
C=CC(=O)Nc1ccc2c(-c3ccnc(Nc4cn(C)nc4C)n3)cn(C)c2c1 [Example 172, N-[3-[2-[(1,3-dimethylpyrazol-4-yl)amino]pyrimidin-4-yl]-1-methyl-indol-6-yl]prop-2-enamide]	0.1 to 100 nM	0.1 to 100 nM	0.1 to 100 nM	250 to 1000 nM
C=CC(=O)Nc1ccc2c(-c3nc(Nc4ccc(N5CCN(C)CC5)nc4)ncc3Cl)cn(C)c2c1 [Example 59, N-[3-[5-chloro-2-[[6-(4-methylpiperazin-1-yl)-3-pyridyl]amino]pyrimidin-4-yl]-1-methyl-indol-6-yl]prop-2-enamide]	0.1 to 100 nM	0.1 to 100 nM	0.1 to 100 nM	0.1 to 100 nM
C=CC(=O)Nc1ccc2c(ccn2-c2nc(Nc3ccccc3OCC)ncc2Cl)c1 [Example 20, N-[1-[5-chloro-2-(2-ethoxyanilino)pyrimidin-4-yl]indol-5-yl]prop-2-enamide]	> 1000 nM	> 1000 nM	> 1000 nM	> 1000 nM
C=CC(=O)Nc1ccc2c(ccn2-c2nc(Nc3cccc(OCCN4CCOCC4)c3)ncc2Cl)c1 [Example 6, N-[1-[5-chloro-2-[3-(2-morpholinoethoxy)anilino]pyrimidin-4-yl]indol-5-yl]prop-2-enamide]	250 to 1000 nM	250 to 1000 nM	0.1 to 100 nM	250 to 1000 nM
C=CC(=O)Nc1ccc2c(c1)c(C)cn2-c1nc(Nc2cccc(N3CCN(CCO)CC3)c2)ncc1Cl [Example 88, N-[1-[5-chloro-2-[3-[4-(2-hydroxyethyl)piperazin-1-yl]anilino]pyrimidin-4-yl]-3-methyl-indol-5-yl]prop-2-enamide]	0.1 to 100 nM	0.1 to 100 nM	0.1 to 100 nM	0.1 to 100 nM

Second part, the compound after the results:

Kd (FGFR2)	Kd (FGFR3)	Kd (FGFR3 (V555M))	Kd (FGFR1)	Structure (SMILES)
0.1 to 100 nM	0.1 to 100 nM	0.1 to 100 nM	0.1 to 100 nM	C=CC(=O)Nc1ccc2c(-c3ccnc(Nc4cnn(CC(F)(F)F)c4)n3)cn(C)c2c1 [Example 168, N-[1-methyl-3-[2-[[1-(2,2,2-trifluoroethyl)pyrazol-4-yl]amino]pyrimidin-4-yl]indol-6-yl]prop-2-enamide]
0.1 to 100 nM	0.1 to 100 nM	0.1 to 100 nM	100 to 250 nM	C=CC(=O)Nc1ccc2c(c1)cc(C)n2-c1nc(Nc2cnn(C)c2)ncc1F [Example 227, N-[1-[5-fluoro-2-[(1-methylpyrazol-4-yl)amino]pyrimidin-4-yl]-2-methyl-indol-5-yl]prop-2-enamide]
> 1000 nM	> 1000 nM	> 1000 nM	> 1000 nM	C=CC(=O)Nc1cc(C)c2c(c1)c(C)cn2-c1nc(Nc2cnn(C)c2)ncc1Cl [Example 71, N-[1-[5-chloro-2-[(1-methylpyrazol-4-yl)amino]pyrimidin-4-yl]-3,7-dimethyl-indol-5-yl]prop-2-enamide]
0.1 to 100 nM	0.1 to 100 nM	0.1 to 100 nM	0.1 to 100 nM	C=CC(=O)Nc1ccc2c(c1)c(C)cn2-c1nc(Nc2cnn(CCOCC)c2)ncc1F [Example 193]
0.1 to 100 nM	0.1 to 100 nM	0.1 to 100 nM	100 to 250 nM	C#CC(=O)Nc1ccc2c(c1)c(C)cn2-c1nc(Nc2ccnn2C)ncc1F [Example 138, N-[1-[5-fluoro-2-[(2-methylpyrazol-3-yl)amino]pyrimidin-4-yl]-3-methyl-indol-5-yl]prop-2-ynamide]
0.1 to 100 nM	100 to 250 nM	0.1 to 100 nM	100 to 250 nM	C=CC(=O)Nc1ccc2c(c1)c(C)cn2-c1nc(Nc2cn(C)nc2OC)ncc1C#N [Example 37, N-[1-[5-cyano-2-[(3-methoxy-1-methyl-pyrazol-4-yl)amino]pyrimidin-4-yl]-3-methyl-indol-5-yl]prop-2-enamide]
0.1 to 100 nM	0.1 to 100 nM	0.1 to 100 nM	0.1 to 100 nM	C=CC(=O)Nc1ccc2c(c1)c(C)cn2-c1nc(Nc2ccn(C3CC3)n2)ncc1C [Example 99, N-[1-[2-[(1-cyclopropylpyrazol-3-yl)amino]-5-methyl-pyrimidin-4-yl]-3-methyl-indol-5-yl]prop-2-enamide]
100 to 250 nM	100 to 250 nM	0.1 to 100 nM	100 to 250 nM	C=CC(=O)Nc1ccc2c(ccn2-c2nc(Nc3cnn(C)c3)ncc2Cl)c1C [Example 18, N-[1-[5-chloro-2-[(1-methylpyrazol-4-yl)amino]pyrimidin-4-yl]-4-methyl-indol-5-yl]prop-2-enamide]
0.1 to 100 nM	0.1 to 100 nM	0.1 to 100 nM	250 to 1000 nM	C=CC(=O)Nc1ccc2c(-c3nc(Nc4ccnn4C)ncc3Cl)cn(C)c2c1 [Example 62, N-[3-[5-chloro-2-[(2-methylpyrazol-3-yl)amino]pyrimidin-4-yl]-1-methyl-indol-6-yl]prop-2-enamide]
0.1 to 100 nM	0.1 to 100 nM	0.1 to 100 nM	0.1 to 100 nM	C=CC(=O)Nc1ccc2c(c1)c(C)cn2-c1nc(Nc2cnn(CCO)c2C)ncc1F [Example 192, N-[1-[5-fluoro-2-[[1-(2-hydroxyethyl)-5-methyl-pyrazol-4-yl]amino]pyrimidin-4-yl]-3-methyl-indol-5-yl]prop-2-enamide]
